This data set is described as follows: Solubilization of CoQ-10 in solvent (monoterpenes; prior liquid delivery solvents). In kind it is physicochemical. The conditions noted are these: without heating or with gentle warming; ambient temperatures. The source says:
The present invention pertains to the surprising discovery that ubiquinone (CoQ-10) and related analogs thereof can be readily dissolved in varying concentrations in monoterpenes. Generally, until the present discovery, most CoQ-10 liquid delivery methods could solubilize only up to about 5% by weight of the CoQ-10 in the “solvent”. Typical solvents included various oils or the CoQ-10 was held in suspension. The present invention provides the ability to solubilize CoQ-10 in monoterpenes in concentrations of up to about 60% (weight to weight) without the need to aggressively heat the solution or with gentle warming. In particular, the solubilization of the CoQ-10 with monoterpenes can be accomplished at ambient temperatures.
Generally, until the present discovery, most CoQ-10 liquid delivery methods could solubilize only up at most about 10% by weight of the CoQ-10 in the solvent. Typical solvents included oils or the CoQ-10 was held in an aqueous suspension. Alternatively, the CoQ-10 was provided as a solid in a tablet or powder.
The present invention provides the ability to solubilize CoQ-10 and analogs thereof in monoterpenes, as defined herein, in concentrations of up to about 60% (weight to weight) without the need to heat the solution. In one aspect, the monoterpene solubilizes CoQ-10 from about 0.1 percent by weight to about 45 percent by weight. […]

For the compound `COC1=C(OC)C(=O)C(C/C=C(\C)CC/C=C(\C)CC/C=C(\C)CC/C=C(\C)CC/C=C(\C)CC/C=C(\C)CC/C=C(\C)CC/C=C(\C)CC/C=C(\C)CCC=C(C)C)=C(C)C1=O` [CoQ-10], the “CoQ-10 solubilized in monoterpenes” value was “up to 60 % (weight to weight)”.
